Experimental data: ChEMBL document CHEMBL1649296, “Modifying culture conditions in chemical library screening identifies alternative inhibitors of mycobacteria” (Antimicrob Agents Chemother, 2009)
Values after ≈ are worked out from the molar mass of the structure shown. Numbered stars: 1 amine (or outer) side, 2 acyl side, 3 side chain; on linkers, the order of the positions; unused ones are H or OH. Bridge positions count the residues as written; N and C are the ends. Square brackets hold non-standard residues; d marks the D form. Peptide text beside a SMILES is read from it. * marks the point of attachment. ξ: configuration not given here. X1 = N=C1NCCC([C@H](N[*:1])C(=O)[*:2])N1; ΔAla(Z-3-ureido) = NC(=O)N/C=C(\N)C(=O)O; ξβ3hOrn = NCCCC(N)CC(=O)*; Dap = NC[C@H](N)C(=O)O

How the values were obtained:
Format in all cases: functional, organism-based
[1] = system: Mycolicibacterium smegmatis; experiment: Antimycobacterial activity against Mycobacterium smegmatis by GFP-based fluorescence assay
[2] = system: Mycolicibacterium smegmatis; experiment: Antimycobacterial activity against Mycobacterium smegmatis assessed as growth inhibition in mid-logarithmic phase by spectrophotometry
[3] = system: Mycolicibacterium smegmatis; experiment: Antimycobacterial activity against Mycobacterium smegmatis grown in carbon-limited broth medium assessed as growth inhibition in mid-logarithmic phase by spectrophotometry; conditions: Mycolicibacterium smegmatis
[4] = system: Mycolicibacterium smegmatis; experiment: Antimycobacterial activity against Mycobacterium smegmatis grown in carbon-limited broth medium assessed as growth inhibition in mid-logarithmic phase by GFP-based fluorescence assay; conditions: Mycolicibacterium smegmatis
[5] = system: Mycolicibacterium smegmatis; experiment: Antimycobacterial activity against Mycobacterium smegmatis grown in nitrogen -limited broth medium assessed as growth inhibition in mid-logarithmic phase by spectrophotometry; conditions: Mycolicibacterium smegmatis
[6] = system: Mycolicibacterium smegmatis; experiment: Antimycobacterial activity against Mycobacterium smegmatis grown in Luria-Bertani broth medium assessed as growth inhibition in mid-logarithmic phase by spectrophotometry; conditions: Mycolicibacterium smegmatis
[7] = system: Mycolicibacterium smegmatis; experiment: Antimycobacterial activity against Mycobacterium smegmatis grown in Luria-Bertani broth medium assessed as growth inhibition in mid-logarithmic phase by GFP-based fluorescence assay; conditions: Mycolicibacterium smegmatis
[8] = system: Mycolicibacterium smegmatis; experiment: Antimycobacterial activity against Mycobacterium smegmatis grown in nitrogen -limited broth medium assessed as growth inhibition in mid-logarithmic phase by GFP-based fluorescence assay; conditions: Mycolicibacterium smegmatis

| MIC [1] | IC50 ([1]; read-out: IC50) | MIC [2] | Compound | IC50 [2] | other results |
| --- | --- | --- | --- | --- | --- |
| 6.25 µM (≈ 2.78 µg/mL) | 0.33 µM | 6.25 µM (≈ 2.78 µg/mL) | CN(C)[C@@H]1C(O)=C(C(N)=O)C(=O)[C@@]2(O)C(O)=C3C(=O)c4c(O)cccc4[C@@](C)(O)[C@H]3C[C@@H]12 [TETRACYCLINE] | 0.41 µM |  |
| 1.56 µM (≈ 0.907 µg/mL) | 0.48 µM | 1.56 µM (≈ 0.907 µg/mL) | CN[C@@H]1[C@H](O[C@H]2[C@H](O[C@H]3[C@H](O)[C@@H](O)[C@H](N=C(N)N)[C@@H](O)[C@@H]3N=C(N)N)O[C@@H](C)[C@]2(O)C=O)O[C@@H](CO)[C@H](O)[C@H]1O [STREPTOMYCIN] | 0.5 µM |  |
| 6.25 µM (≈ 5.14 µg/mL) | 3.11 µM | 6.25 µM (≈ 5.14 µg/mL) | CO[C@H]1/C=C/O[C@@]2(C)Oc3c(C)c(O)c4c(O)c(c(/C=N/N5CCN(C)CC5)c(O)c4c3C2=O)NC(=O)/C(C)=C\C=C\[C@H](C)[C@H](O)[C@@H](C)[C@@H](O)[C@@H](C)[C@H](OC(C)=O)[C@@H]1C [RIFAMPIN] | 4.36 µM |  |

Second part, the compound before the results:

| Compound | MIC [1] | IC50 ([1]; read-out: IC50) | MIC [2] | IC50 [2] | other results |
| --- | --- | --- | --- | --- | --- |
| C[C@@H]1NC(=O)[C@@H](N)CNC(=O)[C@H](C2CCNC(=N)N2)NC(=O)/C(=C/NC(N)=O)NC(=O)[C@H](CNC(=O)CC(N)CCCN)NC1=O.N=C1NCCC([C@@H]2NC(=O)/C(=C/NC(N)=O)NC(=O)[C@H](CNC(=O)CC(N)CCCN)NC(=O)[C@H](CO)NC(=O)[C@@H](N)CNC2=O)N1 (stereo partly drawn) [CAPREOMYCIN] (H-[Dap]S[Dap](ξβ3hOrn)[ΔAla(Z-3-ureido)][X1]; lactam 1-C) | 12.5 µM | 1.78 µM | 12.5 µM | 2.12 µM |  |
| CC[C@@H](CO)NCCN[C@@H](CC)CO [ETHAMBUTOL] | 12.5 µM (≈ 2.55 µg/mL) | 3.2 µM | 12.5 µM (≈ 2.55 µg/mL) | 3.66 µM |  |
| CCc1cc(C(N)=S)ccn1 [ETHIONAMIDE] | 100 µM (≈ 16.6 µg/mL) | 6.75 µM | 100 µM (≈ 16.6 µg/mL) | 7.66 µM |  |
| O=C(O)c1cn(C2CC2)c2cc(N3CCNCC3)c(F)cc2c1=O [CIPROFLOXACIN] | 12.5 µM (≈ 4.14 µg/mL) |  | 12.5 µM (≈ 4.14 µg/mL) | 1.98 µM | IC50 [1]: 1.07 µM |
| CN(C)c1ccc(O)c2c1C[C@H]1C[C@H]3[C@H](N(C)C)C(O)=C(C(N)=O)C(=O)[C@@]3(O)C(O)=C1C2=O [MINOCYCLINE] |  |  |  |  | IC50 [3]: 5.02 µM; MIC [3]: 12.5 µM (≈ 5.72 µg/mL); IC50 [4]: 5.02 µM; MIC [4]: 12.5 µM (≈ 5.72 µg/mL); IC50 [5]: 7.23 µM; MIC [5]: 12.5 µM (≈ 5.72 µg/mL); IC50 [6]: 6.77 µM; MIC [6]: 12.5 µM (≈ 5.72 µg/mL); IC50 [7]: 6.77 µM; MIC [7]: 12.5 µM (≈ 5.72 µg/mL); IC50 [8]: 7.23 µM; MIC [8]: 12.5 µM (≈ 5.72 µg/mL) |
